From patent publication US5543425A, “Method of inhibiting platelet aggregation using phenyl amidine thio derivatives” (G. D. Searle & Co., priority 1994, dated 1996)
pIC50: −log10 of the molar value.

System: platelet aggregation in dog PRP
Assay: In-Vitro Platelet Aggregation in PRP (collagen-induced)
Assay type: cell-based
Conditions: Canis lupus familiaris; for inhibition at 10 µM: Test Concentration 1 × 10^-5 (10 μM), dog PRP, collagen 33.3 μg/m final; for pIC50: dog platelet-rich plasma, collagen-induced aggregation
Description: Compounds of the invention were evaluated by an in vitro assay to determine compound activity as an inhibitors of platelet aggregation.
In-Vitro Platelet Aggregation in PRP
Healthy male or female dogs were fasted for 8 hours prior to drawing blood; then 30 ml whole blood from jugular vein was collected using a butterfly needle and 30 ml plastic syringe with 3 ml of 0.129 M buffered sodium citrate (3.8%). The syringe was rotated carefully as blood was drawn to mix the citrate. The whole blood was transferred to a 50 ml Corning Conical sterile centrifuge tube. Platelet-rich plasma (PRP) was prepared by centrifugation at 975×g for 3.17 minutes at room temperature, allowing the centrifuge to coast to a stop without braking. The PRP was removed from the blood with a plastic pipette and placed in a plastic capped, 50 ml Corning conical sterile centrifuge tube which was held at room temperature. Platelet poor plasma (PPP) was prepared by centrifuging the remaining blood at 2000×g for 15 minutes at room temperature allowing the centrifuge to coast to a stop without braking. The PRP platelet count was typically a count of 2.5-4×10^8 platelets per ml. 400 μL of the PRP preparation and 50 μL of the compound to be tested or saline were preincubated for 2 minutes at 37° C. in a BioData aggregometer (BioData, Horsham, PA). 50 μL of Collagen (equine tendon, Chronolog, Hayertown, PA) [33.3 μg/m, final concentration] was added to the cuvettes and the aggregation was monitored for 4 minutes. All compounds are tested in duplicate. Inhibition of aggregation for each sample was determined using the formula: % of inhibition=100-% of control and % of control=(Tinh -Tbas)/(Tag -Tbas) ×100, where Tbas is % of light transmission in PRP (baseline), Tagg is % of light transmission in the aggregated PRP sample (saline control) and Tinh is % of light transmission in the sample containing the inhibitor.

SMILES	inhibition at 10 µM	pIC50
Cc1ccc(S(=O)(=O)CC(CC(=O)O)NC(=O)CCCCc2ccc(C(=N)N)cc2)cc1 (racemic) [(+)-3-[[5-[4-(aminoiminomethyl)phenyl]-1-oxopentyl]amino]-4-[[(4-methylphenyl)sulfonyl]butanoic acid]	100%	–
CCOC(=O)CC(CC[S+]([O-])Cc1ccccc1)NC(=O)CCCCc1ccc(C(=N)N)cc1 (racemic) [(+)-ethyl 3-[[5-[4-aminoiminomethyl)phenyl]-1-oxopentyl]amino]-5-[(phenylmethyl)sulfinyl]pentanoate]	100%	6.38
N=C(N)c1ccc(CCCCC(=O)NC(CC(=O)O)CS(=O)(=O)c2ccccn2)cc1 (racemic) [(±)-3-[[5-[4-(aminoiminomethyl)phenyl]-1-oxopentyl]amino]-4-(2-pyridinylsulfonyl)butanoic acid]	100%	–
N=C(N)c1ccc(CCCCC(=O)NC(CC(=O)O)CS(=O)(=O)c2ccccc2)cc1 (racemic) [(±)-3-[[5-[4-(aminoiminomethyl)phenyl]-1-oxopentyl]amino]-4-(phenylsulfonyl)butanoic acid]	100%	7.55
N=C(N)c1ccc(CCCCC(=O)NC(CSc2ccccc2)CC(=O)O)cc1 (racemic) [(±)-3-[[5-[4-(aminoiminomethyl)phenyl]-1-oxopentyl]amino]-4-(phenylthio) butanoic acid]	100%	6.30
N=C(N)c1ccc(CCCCC(=O)NC(CSc2ccc(F)cc2)CC(=O)O)cc1 (racemic) [(±)-3-[[5-[4-(aminoiminomethyl)phenyl]-1-oxopentyl]amino]-4-[(4-fluorophenyl)thio]butanoic acid]	100%	5.74
COc1ccc(S(=O)(=O)CC(CC(=O)O)NC(=O)CCCCc2ccc(C(=N)N)cc2)cc1 (racemic) [(±)-3-[[5-[4-(aminoiminomethyl)phenyl]-1-oxopentyl]amino]-4-[(4-methoxyphenyl)sulfonyl]butanoic acid]	100%	6.89
N=C(N)c1ccc(CCCCC(=O)NC(CC(=O)O)C[S+]([O-])c2ccccc2)cc1 (racemic) [(±)-3-[[5-[4-(aminoiminomethyl)phenyl]-1-oxopentyl]amino]-4-[(phenylsulfinyl)butanoic acid]	100%	6.70
N=C(N)c1ccc(CCCCC(=O)NC(CC(=O)O)CS(=O)(=O)c2ccc(F)cc2)cc1 (racemic) [(±)-3-[[5-[4-(aminoiminomethyl)phenyl]-1-oxopentyl]amino]-4-[[(4-fluorophenyl)]sulfonyl]butanoic acid]	100%	6.92
C[S+]([O-])CCC(CC(=O)O)NC(=O)CCCCc1ccc(C(=N)N)cc1 (racemic) [(±)-3-[[5-[4-(aminoiminomethyl)phenyl]-1-oxopentyl]amino]-5-(methylsulfinyl) pentanoic acid]	100%	5.82
CS(=O)(=O)CCC(CC(=O)O)NC(=O)CCCCc1ccc(C(=N)N)cc1 (racemic) [(±)-3-[[5-[4-(aminoiminomethyl)phenyl]-1-oxopentyl]amino]-5-(methylsulfonyl)pentanoic acid]	100%	6.15
CSCCC(CC(=O)O)NC(=O)CCCCc1ccc(C(=N)N)cc1 (racemic) [(±)-3-[[5-[4-(aminoiminomethyl)phenyl]-1-oxopentyl]amino]-5-(methylthio) pentanoic acid]	100%	5.89
N=C(N)c1ccc(CCCCC(=O)NC(CC[S+]([O-])Cc2ccccc2)CC(=O)O)cc1 (racemic) [(±)-3-[[5-[4-(aminoiminomethyl)phenyl]-1-oxopentyl]amino]-5-[(phenylmethyl)sulfinyl]pentanoic acid]	100%	7.00
N=C(N)c1ccc(CCCCC(=O)NC(CCS(=O)(=O)Cc2ccccc2)CC(=O)O)cc1 (racemic) [(±)-3-[[5-[4-(aminoiminomethyl)phenyl]-1-oxopentyl]amino]-5[(phenylmethyl)sulfonyl]pentanoic acid]	100%	6.66
CCOC(=O)CC(C[S+]([O-])c1ccccc1)NC(=O)CCCCc1ccc(C(=N)N)cc1 (racemic) [(±)-ethyl 3-[[5-[4-(aminoiminomethyl)phenyl]-1-oxopentyl]amino]-4-(4-phenylsulfinyl)butanoate]	0%	–
CCOC(=O)CC(CS(=O)(=O)c1ccccc1)NC(=O)CCCCc1ccc(C(=N)N)cc1 (racemic) [(±)-ethyl 3-[[5-[4-(aminoiminomethyl)phenyl]-1-oxopentyl]amino]-4-(phenylsulfonyl)butanoate]	3%	–
CCOC(=O)CC(CSc1ccccc1)NC(=O)CCCCc1ccc(C(=N)N)cc1 (racemic) [(±)-ethyl 3-[[5-[[4-(aminoiminomethyl)phenyl]-1-oxopentyl]amino]-4-(4-phenylthio) butanoate]	0%	–
CC(C)OC(=O)CC(CS(=O)(=O)c1ccccn1)NC(=O)CCCCc1ccc(C(=N)N)cc1 (stereo not drawn) [1-methylethyl 3S-[[5-[4-(aminoiminomethyl)phenyl]-1-oxopentyl]amino]-4-(2-pyridinylsulfonyl)butanoate]	28%	–
Cc1ccc([S+]([O-])CCNC(=O)CCCCc2ccc(C(=N)N)cc2)cc1 (centres unmarked) [4-(aminoiminomethyl)-N-[2-[(4-methylphenyl)sulfinyl]ethylbenzenepentanamide]	0%	–
Cc1ccc(S(=O)(=O)CCNC(=O)CCCCc2ccc(C(=N)N)cc2)cc1 [4-(aminoiminomethyl)-N-[2-[(4-methylphenyl)sulfonyl]ethylbenzenepentanamide]	23%	–
